Assay results published in patent US4900672A, “Method for preservation of nitrile hydration activity” (Nitto Kagaku Kogyo Kabushiki Kaisha, priority 1986, dated 1990).
Like-named read-outs stand apart in the source and are kept apart here.

Molecular target: T1, nitrile hydratase (Pseudomonas chlororaphis, UniProt P27763+P27764)
T1 sequence (P27764 1-200): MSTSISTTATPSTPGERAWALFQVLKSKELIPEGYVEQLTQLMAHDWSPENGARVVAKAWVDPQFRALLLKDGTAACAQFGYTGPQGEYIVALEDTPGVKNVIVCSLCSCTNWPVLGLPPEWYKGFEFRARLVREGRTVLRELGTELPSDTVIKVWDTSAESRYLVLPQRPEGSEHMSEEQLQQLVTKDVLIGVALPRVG
T1 sequence (P27763 1-220): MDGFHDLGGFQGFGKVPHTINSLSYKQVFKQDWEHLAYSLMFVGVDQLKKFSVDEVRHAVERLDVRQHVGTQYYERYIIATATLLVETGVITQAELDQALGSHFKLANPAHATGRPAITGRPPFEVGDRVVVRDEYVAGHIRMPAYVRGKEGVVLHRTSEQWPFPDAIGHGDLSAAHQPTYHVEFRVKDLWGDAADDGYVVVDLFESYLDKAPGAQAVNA
Assay: Preservation of nitrile hydration activity of washed cell suspension left standing ice-cooled with stabilizer
Format: cell-based, Pseudomonas chlororaphis B23 (FERM BP-187)
Settings: for activity at 10 mg: 120 h; for activity at 25 mg: 96 h

[1] = Table 2, 10 mg amide in 5 ml cell suspension, pH 6.5, left standing 5 days ice-cooled, no stabilizer: 42, read-out: % Residual Activity
[2] = Table 1, 10 mg nitrile in 5 ml cell suspension, pH 6.5, left standing 5 days ice-cooled, no stabilizer: 42, read-out: % Residual Activity
[3] = Table 3, 10 mg organic acid in 5 ml cell suspension, pH 6.0, left standing 5 days ice-cooled, no stabilizer: 43, read-out: % Residual Activity
[4] = pH 6.5, read-out: % Residual Activity
[5] = pH 6, read-out: % Residual Activity
[6] = pH 5.5, read-out: % Residual Activity

## CCC(N)=O [Propionamide]
[1]
  activity at 10 mg: 93%

## N#CCCC#N [Succiononitrile]
[2]
  activity at 10 mg: 81%

## CC(N)=O [Acetamide]
[1]
  activity at 10 mg: 67%

## O=C(O)CO [Glycolic acid]
[3]
  activity at 10 mg: 77%

## O=C(O)C(O)CO (racemic) [DL-Glyceric acid]
[3]
  activity at 10 mg: 87%

## C=CC(N)=O [Acrylamide]
[1]
  activity at 10 mg: 73%

## CCCCCC(N)=O [n-Capronamide]
[1]
  activity at 10 mg: 88%

## NCC(N)=O [Glycine amide]
[1]
  activity at 10 mg: 63%

## NC(=O)CCl [Chloroacetamide]
[4]
  activity at 10 mg: 71%

## O=C(O)CC(O)C(=O)O (stereo not shown) [Malic acid]
[3]
  activity at 10 mg: 81%

## O=CO [Formic Acid]
[5]
  activity at 10 mg: 83%

## CC(C)C#N [Isobutyronitrile]
[6]
  activity at 25 mg: 98%
Table 4, pH 5.0, 25 mg stabilizer in 5 ml, 4 days ice-cooled, no stabilizer: 2, read-out: % Residual Activity
  activity at 25 mg: 5%
Table 4, pH 6.0, 25 mg stabilizer in 5 ml, 4 days ice-cooled, no stabilizer: 41, read-out: % Residual Activity
  activity at 25 mg: 97%
Table 4, pH 6.5, 25 mg stabilizer in 5 ml, 4 days ice-cooled, no stabilizer: 52, read-out: % Residual Activity
  activity at 25 mg: 85%
Table 4, pH 7.0, 25 mg stabilizer in 5 ml, 4 days ice-cooled, no stabilizer: 43, read-out: % Residual Activity
  activity at 25 mg: 80%
Table 4, pH 8.0, 25 mg stabilizer in 5 ml, 4 days ice-cooled, no stabilizer: 26, read-out: % Residual Activity
  activity at 25 mg: 53%
[2]
  activity at 10 mg: 95%
Table 5, stabilizer concentration 0.01 g/l, pH 6.0, 3 days ice-cooled, no stabilizer (pH 6.5): 52, read-out: % Residual Activity
  remaining activity at 10 µg/mL: 78%
[5]
  remaining activity at 100 µg/mL: 85%
  remaining activity at 1000 µg/mL: 98%
  remaining activity at 5000 µg/mL: 100%
  remaining activity at 20000 µg/mL: 91%

## C=C(C)C#N [Methacrylonitrile]
[2]
  activity at 10 mg: 80%

## N#CCCCCC#N [Adiponitrile]
[2]
  activity at 10 mg: 84%

## N#CCCN [β-Aminopropionitrile]
[2]
  activity at 10 mg: 70%

## CCCCC#N [n-Valeronitrile]
[2]
  activity at 10 mg: 93%

## C=CC(=O)O [Acrylic acid]
[3]
  activity at 10 mg: 70%

## NC(=O)c1cccnc1 [Nicotinamide]
[1]
  activity at 10 mg: 59%

## CC(C)C(=O)O [Isobutyric acid]
pH 5, read-out: % Residual Activity
  activity at 25 mg: 1%
[6]
  activity at 25 mg: 100%
[5]
  activity at 25 mg: 100%
  activity at 10 mg: 97%
  remaining activity at 100 µg/mL: 83%
  remaining activity at 1000 µg/mL: 100%
  remaining activity at 5000 µg/mL: 97%
  remaining activity at 20000 µg/mL: 95%
  remaining activity at 50000 µg/mL: 87%
[4]
  activity at 25 mg: 88%
pH 7, read-out: % Residual Activity
  activity at 25 mg: 78%
pH 8, read-out: % Residual Activity
  activity at 25 mg: 49%
read-out: % Residual Activity
  remaining activity at 10 µg/mL: 80%

## CCCCC(N)=O [n-Valeramide]
[1]
  activity at 10 mg: 94%

## O=CC(=O)O [Glyoxylic acid]
[3]
  activity at 10 mg: 88%

## O=C(O)CCl [Monochloroacetic acid]
[3]
  activity at 10 mg: 70%

## CCCC(N)=O [n-Butyramide]
[1]
  activity at 10 mg: 89%

## CC#N [Acetonitrile]
[4]
  activity at 10 mg: 71%

## C=C(C)C(=O)O [Methacrylic acid]
[3]
  activity at 10 mg: 81%

## N#CCN [Glycine nitrile]
[2]
  activity at 10 mg: 68%

## CCCCCC(=O)O [Caproic acid]
[3]
  activity at 10 mg: 83%

## CC(O)C#N (stereo not shown) [Lactonitrile]
[2]
  activity at 10 mg: 73%

## C=CC#N [Acrylonitrile]
[2]
  activity at 10 mg: 71%
